{
  "source": "patent US20230398087A1",
  "about": "“APPLICATION OF BZP IN TREATMENT OF ISCHEMIC CARDIOVASCULAR AND CEREBRAL VASCULAR DISEASES” (priority 2020, published 2023)",
  "key": {"MCAO model rats": {"test_system": "MCAO model rats", "experiment": "Focal cerebral ischemia-reperfusion injury in rats (MCAO model)", "assay_type": "in vivo", "description": "BZP has a protective effect on cerebral ischemia-reperfusion injury and is effective when administered within 4 hours after ischemia, especially within 2 hours after ischemia.\nIn the follow-up test, the drug was administered at 2 h of ischemia.\nBZP can improve motor dysfunction, reduce the volume of cerebral infarction, and reduce cerebral edema. The optimal treatment time window is within 4 hours after ischemia, especially within 2 hours after ischemia."}, "[1]": {"test_system": "Bax/Bcl-2-cytochrome C-Caspase-3 mitochondrial apoptosis pathway; PI3K-p-Akt survival signaling pathway", "experiment": "Neuronal apoptosis after focal cerebral ischemia-reperfusion injury", "set-up": "species or system rats", "details": "rat, in vivo", "description": "2.3 The Protective Effect of BZP on Neuronal Apoptosis after Focal Cerebral Ischemia-Reperfusion Injury in Rats: […]"}, "respiratory system": {"test_system": "respiratory system", "experiment": "Safety pharmacology, respiratory system", "assay_type": "in vivo, rats", "details": "single intravenous injection 25-100 mg/kg", "description": "In terms of the respiratory system, a single intravenous injection of BZP 25-100 mg/kg had no effect on rats."}, "neurobehavior": {"test_system": "neurobehavior", "experiment": "Safety pharmacology, neurobehavior", "assay_type": "in vivo, rats", "description": "These changes all recovered within 4 hours after drug withdrawal. The effective dose (12 mg/kg) of BZP to protect against ischemia-reperfusion injury in rats was lower than the dose (50 mg/kg) that caused neurological effects in rats."}, "[2]": {"test_system": "acute ischemic stroke patients", "experiment": "BZP1703 Phase II clinical trial in acute ischemic stroke", "assay_type": "in vivo, human", "details": "preliminary results", "description": "The BZP1703 clinical trial is a multi-center, randomized, double-blind, placebo-controlled Phase II clinical trial. The purpose of the trial is to evaluate the safety and feasibility of different doses of BZP for injection compared with placebo in the treatment of acute ischemic stroke, and to preliminarily explore its effectiveness, so as to provide a basis for the design of Phase III clinical trial.\nThe trial plans to enroll 375 acute ischemic stroke patients aged 45 to 75 in China. […]\nThe primary safety endpoint of the BZP1703 trial is SAE, and the primary efficacy endpoint is the difference between the NIHSS score on day 14 and the baseline NIHSS score. Secondary safety endpoints include all-cause death, fatal bleeding and symptomatic intracranial hemorrhage, hemorrhagic transformation of cerebral infarction detected by head magnetic resonance imaging (MRI) on day 14, various adverse events; other bleeding events, AE, AEs of special interest (seizures, bradycardia, atrioventricular block, coagulation abnormalities, proteinuria, leukopenia), number and incidence of patients with new vascular events (ischemic stroke/hemorrhagic stroke/myocardial infarction/vascular death), vital signs, physical examination, laboratory tests (blood routine, blood biochemistry, urine routine, stool routine, coagulation function, etc.), 12-lead electrocardiogram (ECG) and other abnormalities. […]"}, "[3]": {"experiment": "BZP1601 Phase I single dose pharmacokinetics in healthy subjects"}, "[4]": {"details": "BZP 3, 12 and 24 mg/kg, compared with the model group"}},
  "note": "Entries after “also recorded” stand apart in the source; their conditions may differ.",
  "data": [
    {"compound": "CCCCC(O)c1ccc(Br)cc1C(=O)[O-].[Na+]", "note": "(stereo not drawn) [BZP, sodium 5-bromo-2-(α-hydroxypentyl)benzoate]", "values": [
      {"measurement": "volume of cortical infarction", "setting": "MCAO model rats; 0.75 mg/kg (P<0.01)", "result": "significantly reduce the volume of cortex"},
      {"measurement": "effect on volume of cerebral infarction compared with Br-NBP group", "setting": "MCAO model rats; 3 mg/kg of BZP (P<0.01)", "result": "better than that of Br-NBP group"},
      {"measurement": "muscle strength and balance beam behavior", "setting": "MCAO model rats; 12 mg/kg", "result": "significantly restore"},
      {"measurement": "proportion of necrotic neurons and apoptosis rate", "setting": "MCAO model rats; 12 mg/kg", "result": "reduce the proportion of necrotic neurons and apoptosis rate"},
      {"measurement": "effect of administration at 0.5 h and 2 h compared with 4 h after ischemia", "setting": "MCAO model rats; 12 mg/kg (P<0.01)", "result": "better than that of 4 h"},
      {"measurement": "volume of cerebral infarction, treatment time window", "setting": "MCAO model rats; 12 mg/kg at 0.5 h, 2 h or 4 h after ischemia, compared with the model group", "result": "significantly reduce"},
      {"measurement": "improved effects compared with NBPK group", "setting": "MCAO model rats; 12 mg/kg, muscle strength, balance beam, necrotic neurons, apoptosis rate", "result": "significantly better than those of NBPK group"},
      {"measurement": "volumes of cerebral infarction", "setting": "MCAO model rats; 0.75, 3, 12 and 24 mg/kg, compared with the model group (P<0.01)", "result": "significantly reduced"},
      {"measurement": "neurobehavioral scores", "setting": "MCAO model rats; 3, 12 and 24 mg/kg, at 2.5 h and 6 h, compared with the model group (P<0.05, P<0.01)", "result": "significantly lower"},
      {"measurement": "volumes of brain edema", "setting": "MCAO model rats; 3, 12 and 24 mg/kg, compared with the model group (P<0.01)", "result": "significantly reduced"},
      {"measurement": "volumes of striatal and cortical infarction", "setting": "MCAO model rats; 3 and 12 mg/kg (P<0.01)", "result": "significantly reduced the volumes of striatal and cortical infarction"},
      {"measurement": "effect on volume of cerebral infarction compared with NBP-K and Br-NBP groups", "setting": "MCAO model rats; 12 and 24 mg/kg of BZP (P<0.01)", "result": "better than those of NBP-K and Br-NBP groups"},
      {"measurement": "effect on brain edema compared with NBP-K group and Br-NBP group", "setting": "MCAO model rats; 24 and 12 mg/kg of BZP (P<0.01)", "result": "better than those of NBP-K group and Br-NBP group"},
      {"measurement": "brain swelling", "setting": "MCAO model rats; [4]", "result": "significantly reduce"},
      {"measurement": "volume of cerebral infarction", "setting": "MCAO model rats; [4]", "result": "significantly reduce"},
      {"measurement": "neurobehavior of MCAO model rats", "setting": "MCAO model rats; BZP 3, 12 and 24 mg/kg, dose-dependent", "result": "improve the neurobehavior"},
      {"measurement": "treatment time window: time of administration after ischemia at which effective", "setting": "MCAO model rats; especially within 2 hours after ischemia", "result": "≤ 4", "unit": "h"},
      {"measurement": "effective dose to protect against ischemia-reperfusion injury in rats", "setting": "MCAO model rats; rat, in vivo", "result": 12, "unit": "mg/kg"},
      {"measurement": "Bax/Bcl-2-cytochrome C-Caspase-3 mitochondrial apoptosis pathway", "setting": "[1]", "result": "inhibiting"},
      {"measurement": "PI3K-p-Akt survival signaling pathway", "setting": "[1]", "result": "up-regulating"},
      {"measurement": "loss of nerve cells and apoptosis rate", "setting": "[1]", "result": "reduce the loss of nerve cells and reduce the apoptosis rate"},
      {"measurement": "effect on the respiratory system", "setting": "respiratory system", "result": "no effect"},
      {"measurement": "time to recovery of neurobehavioral changes after drug withdrawal", "setting": "neurobehavior; 50 and 100 mg/kg", "result": "≤ 4", "unit": "h"},
      {"measurement": "dose that caused neurological effects in rats", "setting": "neurobehavior; single intravenous injection", "result": 50, "unit": "mg/kg"},
      {"measurement": "body temperature", "setting": "neurobehavior; single intravenous injection 50 mg/kg and 100 mg/kg", "result": "decrease in body temperature"},
      {"measurement": "neurobehavioral signs at high dose", "setting": "neurobehavior; single intravenous injection 100 mg/kg", "result": "decreased activity, erect hair, decreased frequency of defecation and urination and loss of pupillary stimulation reflex"},
      {"measurement": "effectiveness, single dose of 200 mg compared with 100 mg", "setting": "[2]; acute ischemic stroke patients", "result": "significantly more effective than a single dose of 100 mg"},
      {"measurement": "effectiveness, 200 mg twice daily compared with 100 mg twice daily", "setting": "[2]; intravenous infusion for 14 days", "result": "significantly more effective than the dosage regimen of a single dose of 100 mg twice daily"},
      {"measurement": "debrominated metabolites", "setting": "[3]; 200 mg group", "result": "no debrominated metabolites were found"},
      {"measurement": "metabolites other than BNBP", "setting": "[3]; BZP1601", "result": "did not find other meaningful metabolites except BNBP"},
      {"measurement": "Tmax / time of peak blood drug level", "setting": "[3]; BZP1601, median Tmax similar in each dose group", "result": "basically reached the peak blood drug level after the end of administration"},
      {"measurement": "half-life", "setting": "[3]; both, human, plasma, iv", "result": "~8", "unit": "h"},
      {"measurement": "difference in AUC0-t and Cmax between subjects of different genders", "setting": "[3]; single dose 25-400 mg", "result": "not significantly different; also recorded: There was no significant"},
      {"measurement": "cumulative urine excretion rate across dose groups", "setting": "[3]; single dose, each dose group", "result": "basically the same"},
      {"measurement": "relationship of AUC0-t and Cmax in plasma with the dose", "setting": "[3]; single intravenous infusion, 25-400 mg", "result": "linearly related to the dose"}
    ]}
  ]
}
